# Results from patent publication US6410735B1, “1-(4-arylpiperazin-1-y1)-ω-[N-(α,ω-dicarboximido)]-alkanes useful as uro-selective α1-adrenoceptor blockers” (Ranbaxy Laboratories Limited, priority 1997, dated 2002).
# Tests used:
# α1A-adrenoceptor = biological target: T1, α1A-adrenoceptor (Rattus norvegicus, UniProt P43140); experiment: Receptor binding assay, [3H]prazosin, rat submaxillary membranes; conditions: rat submaxillary membranes, 0.5 nM [3H]prazosin; read-out: RBA (Ki nM) α1A
# T1 construct: from tissue; host or cells: rat submaxillary gland membranes
# T1 sequence (P43140 1-466): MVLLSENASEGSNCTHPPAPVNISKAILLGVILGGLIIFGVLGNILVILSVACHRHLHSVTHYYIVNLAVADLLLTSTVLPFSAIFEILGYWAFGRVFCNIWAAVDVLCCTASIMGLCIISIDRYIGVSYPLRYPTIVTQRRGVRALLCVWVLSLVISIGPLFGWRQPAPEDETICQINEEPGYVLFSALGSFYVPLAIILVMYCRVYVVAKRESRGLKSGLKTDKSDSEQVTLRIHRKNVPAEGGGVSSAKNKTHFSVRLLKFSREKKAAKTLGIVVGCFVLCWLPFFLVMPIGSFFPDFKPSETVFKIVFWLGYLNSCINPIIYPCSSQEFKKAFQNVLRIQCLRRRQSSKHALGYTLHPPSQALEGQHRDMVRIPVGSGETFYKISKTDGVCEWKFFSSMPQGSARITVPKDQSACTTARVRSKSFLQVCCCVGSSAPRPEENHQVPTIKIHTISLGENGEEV
# Protocol: Receptor binding assays, (RBA's) were performed for native α1-adrenoceptors. Rat submaxillary and rat liver membrane preparations were used to assess the affinity for α1A and α1B subtypes, respectively. Aliquots of membrane protein ([…]) were incubated in a final volume of […] assay buffer (50 mM Tris, 0.5 mM EDTA at pH 7.4) with 0.5 nM [^3H] prazosin for 60 mins at 28 ° C. Reaction was stopped by rapid filtration on Millipore filters. Filters were dried and bound radioactivity counted. Non-specific binding was determined in the presence of 0.3 mM prazosin.
# [1] = system: anaesthetized dogs (blood pressure); experiment: In vivo selectivity study, phenylephrine response on blood pressure in anaesthetized dogs; set-up: species or system dog; conditions: Canis lupus familiaris, iv 0.01-0.3 mg/kg, against phenylephrine, read-out: pseudo pKB Blood Pressure (converted)
# Protocol: Male mongrel dogs (12-20 Kg) were anaesthetized with pentobarbitone sodium (35 mg/kg, iv). Trachea was intubated for artificial respiration. Femoral artery and femoral vein were cannulated for recording blood pressure and for administration of drug solutions, respectively. Blood pressure was recorded on a polygraph through a pressure transducer. A paramedian incision was made lateral to the penis and the bladder was exposed. Urine was drained through a cannula put directly into the bladder and it was guided into the urethra gently and was placed at the prostatic urethra. Balloon was inflated with 2 cc air and its placement was confirmed by digital pressure. Intraurethral pressure was recorded on the polygraph through a pressure transducer. Graded dose response relationship of phenylephrine (1-16 μg/kg, iv) was obtained on prostatic pressure and blood pressure, prior to administration of the compounds of the present invention. Compounds 2, 9, and 13 (at dosages of 0.01, 0.03, 0.1, and 0.3 mg/kg) were administered intravenously 10 min before obtaining phenylephrine dose response curves. Results were analyzed and pseudo PKB values were calculated as described in Kenny et al (1996).
# H1 receptor = biological target: T2, H1 receptor (Cavia porcellus, UniProt P31389); experiment: Receptor selectivity, guinea pig trachea; assay type: cell-based; conditions: read-out: pKB H1-Histaminergic (converted)
# T2 construct: guinea pig trachea was used to study H1 receptor antagonistic activity; from tissue; host or cells: guinea pig trachea
# Protocol: (§1) Selectivity of action of the present compounds was tested against a range of different receptors, e.g., β1- and α2-adrenergic, muscarinic cholinergic, serotoninergic (5-HT2A), histaminergic (H1), angiotensin II, endothelin (ETA and B,), as well as calcium and potassium channels. Rat aorta was used to study the effect of the compounds on 5-HT2A, ETA, calcium and potassium channels. Angiotensin II receptor antagonistic activity was studied in rabbit aorta. Muscarinic cholinergic receptor and ETB receptor antagonistic activity was studied in rat trachea, while guinea pig trachea was used to study H1 receptor antagonistic activity. Electrically stimulated rat vas deferens was used to investigate the effect of α2-adrenoceptors, while β1-adrenoceptor antagonistic activity was studied using electrically stimulated rat ventricular strips. Results of this selectivity study is shown in (Table 2).
# 5-HT2A = biological target: T3, 5-HT2A (Rattus norvegicus, UniProt P14842); experiment: Receptor selectivity, rat aorta; assay type: cell-based; conditions: read-out: pKB 5-HT2A (converted)
# T3 construct: from tissue; host or cells: rat aorta
# Protocol: as §1
# [2] = biological target: T4, α1B-adrenoceptor (spleen) (Rattus norvegicus, UniProt P15823); experiment: In vitro functional assay, phenylephrine-induced contraction of isolated spleen; assay type: cell-based; conditions: rat spleen, phenylephrine; read-out: In Vitro Functional Assay (pKB) α1B (converted)
# T4 construct: Aorta, prostate and spleen tissues were isolated from urethane anaesthetized (1.5 gm/kg) male wistar rats; from tissue; host or cells: isolated spleen of male Wistar rats
# T4 sequence (P15823 1-515): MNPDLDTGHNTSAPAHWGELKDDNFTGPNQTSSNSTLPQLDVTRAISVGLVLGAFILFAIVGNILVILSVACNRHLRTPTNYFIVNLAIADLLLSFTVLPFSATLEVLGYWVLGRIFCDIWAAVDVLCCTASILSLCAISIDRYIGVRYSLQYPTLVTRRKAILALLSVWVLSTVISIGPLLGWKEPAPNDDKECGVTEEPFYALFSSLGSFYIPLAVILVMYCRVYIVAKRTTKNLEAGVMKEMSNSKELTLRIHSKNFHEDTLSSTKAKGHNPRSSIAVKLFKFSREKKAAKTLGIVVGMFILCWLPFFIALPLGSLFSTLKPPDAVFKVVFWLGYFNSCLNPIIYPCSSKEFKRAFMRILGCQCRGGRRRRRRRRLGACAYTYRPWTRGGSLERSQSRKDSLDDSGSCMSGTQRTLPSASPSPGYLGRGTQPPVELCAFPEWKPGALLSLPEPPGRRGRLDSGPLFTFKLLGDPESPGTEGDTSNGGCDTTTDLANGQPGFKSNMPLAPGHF
# Excerpt: In order to study selectivity of action of the present compounds towards different α-adrenoceptor subtypes, the ability of these compounds to antagonize α1-adrenoceptor agonist induced contractile response of aorta (α1D), prostate (α1A) and spleen (α1B) was studied. Aorta, prostate and spleen tissues were isolated from urethane anaesthetized (1.5 gm/kg) male wistar rats. Isolated tissues were mounted in organ bath containing Krebs Henseleit buffer of the following composition (mM): NaCl 118; KCl 4.7; CaCl2 2.5; MgSO4·H2O 1.2; NaHCO3 25; KH2PO4 1.2; glucose 11.5. Buffer was maintained at 37° C. and aerated with a mixture of 95% O2 and 5% CO2. A resting tension of 2 g (aorta) or 1 g (spleen and prostate) was applied to tissues. Contractile response was monitored using a force displacement transducer and recorded on chart recorders. Tissues were allowed to equilibrate for 2 hours. At the end of equilibration period, concentration response curves to norepinephrine (aorta) and phenylephrine (spleen and prostate) were obtained in the absence and presence of the tested compound (at concentrations of 0.1, 1 and 10 μM). Antagonist affinity was calculated and expressed as PKB values in Table 1.
# T3 sequence (P14842 whole entry): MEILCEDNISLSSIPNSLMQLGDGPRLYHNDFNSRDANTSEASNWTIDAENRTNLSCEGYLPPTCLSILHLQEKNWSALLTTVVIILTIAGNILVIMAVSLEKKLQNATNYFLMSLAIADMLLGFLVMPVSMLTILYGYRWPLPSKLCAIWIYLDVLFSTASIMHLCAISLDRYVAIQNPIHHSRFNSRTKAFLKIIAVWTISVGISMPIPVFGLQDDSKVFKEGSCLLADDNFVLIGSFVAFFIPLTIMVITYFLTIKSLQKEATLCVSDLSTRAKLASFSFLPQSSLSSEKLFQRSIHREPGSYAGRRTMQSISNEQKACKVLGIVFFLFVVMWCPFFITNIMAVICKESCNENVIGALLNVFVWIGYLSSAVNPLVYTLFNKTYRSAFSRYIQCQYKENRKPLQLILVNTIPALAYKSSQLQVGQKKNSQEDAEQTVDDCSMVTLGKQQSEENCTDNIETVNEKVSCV
# T2 sequence (P31389 whole entry): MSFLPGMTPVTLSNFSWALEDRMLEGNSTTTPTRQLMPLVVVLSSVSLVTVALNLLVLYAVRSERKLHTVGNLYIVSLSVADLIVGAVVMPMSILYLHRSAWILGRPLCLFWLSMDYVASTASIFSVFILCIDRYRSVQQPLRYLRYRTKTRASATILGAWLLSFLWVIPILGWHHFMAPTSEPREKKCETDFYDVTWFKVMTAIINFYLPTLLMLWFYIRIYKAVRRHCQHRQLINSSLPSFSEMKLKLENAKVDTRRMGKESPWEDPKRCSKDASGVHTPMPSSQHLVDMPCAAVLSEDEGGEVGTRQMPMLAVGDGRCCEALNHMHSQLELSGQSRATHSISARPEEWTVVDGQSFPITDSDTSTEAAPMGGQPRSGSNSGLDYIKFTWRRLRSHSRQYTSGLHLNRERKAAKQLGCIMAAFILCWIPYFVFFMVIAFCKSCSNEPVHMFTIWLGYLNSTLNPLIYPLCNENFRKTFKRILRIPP
Structure (SMILES),Ki (α1A-adrenoceptor) [nM],Kb [1] [nM],Kb (H1 receptor) [µM],Kb (5-HT2A) [nM],Kb [2] [nM]
"COc1ccccc1N1CCN(CCCN2C(=O)CCC2=O)CC1 [Compound 2, 1-[4-(2-Methoxyphenyl)piperazin-1-yl]3-(2,5-dioxopyrrolidin-1-yl)propane]",19,126,5.01,25.1,25.1
"COc1ccccc1N1CCN(CCCN2C(=O)CCCC2=O)CC1 [Compound 13, 1-[4-(2-Methoxyphenyl)piperazin-1-yl]-3-(2,6-dioxopiperidin-1-yl)propane]",3,79.4,2,10,10
"COc1ccccc1N1CCN(CCCCN2C(=O)CCC2=O)CC1 [Compound 9, 1-[4-(2-Methoxyphenyl)piperazin-1-yl]-4-(2,5-dioxopyrrolidin-1-yl)butane]",1,39.8,3.98,12.6,10
